Measured values published in paper PMC8463110 (Bioorganic & medicinal chemistry, 2013).

Tests used:
human μ opioid receptor = human μ opioid receptor (Homo sapiens, UniProt P35372); assay: Opioid receptor binding, [3H]DAMGO displacement, CHO cell membranes; conditions: 1.3 nM [3H]DAMGO, 120 min 25 °C
[1] = tested on: cocaine-induced convulsions in Swiss Webster mice; assay: Cocaine-induced convulsions; assay type: in vivo; conditions: 30 mg/kg ip (highest dose tested), 15 min before cocaine 70 mg/kg ip, p < 0.05 Fisher's exact test
[2] = tested on: behavioral and neurotoxic effects of cocaine in mice; conditions: cited from earlier work
mice = conditions: ref unpublished finding, R.R. Matsumoto, Morgantown, WV; cited from earlier work

human μ opioid receptor, sequence (P35372 whole entry): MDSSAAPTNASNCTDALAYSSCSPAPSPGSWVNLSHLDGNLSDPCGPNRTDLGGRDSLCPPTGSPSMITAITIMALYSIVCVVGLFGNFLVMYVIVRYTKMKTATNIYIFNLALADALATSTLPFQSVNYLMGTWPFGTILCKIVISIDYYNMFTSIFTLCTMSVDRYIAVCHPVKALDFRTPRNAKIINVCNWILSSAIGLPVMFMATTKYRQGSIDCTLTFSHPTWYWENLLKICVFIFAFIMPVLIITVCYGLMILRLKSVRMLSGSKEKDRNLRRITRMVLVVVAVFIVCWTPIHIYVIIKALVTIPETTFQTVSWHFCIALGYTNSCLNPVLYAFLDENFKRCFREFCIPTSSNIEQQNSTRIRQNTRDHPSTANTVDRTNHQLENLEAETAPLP

Row | Compound | Opioid binding Ki ± SEM, μ (human μ opioid receptor) | Attenuation of cocaine-induced convulsions [1] | Effect on behavioral and neurotoxic effects of cocaine [2] | Therapeutic window / deaths at supratherapeutic doses (mice)
1 | CN(CCc1ccccc1)[C@H]1CCCC[C@@H]1O (relative stereo) [Compound 6, trans-2-(Methyl(phenethyl)amino)cyclohexanol] | no affinity | significant attenuation of cocaine-induced convulsions |  | 
2 | c1ccc(CCN2CCCCC2)cc1 [AC927, N-phenethylpiperidine] |  |  | attenuated the behavioral and neurotoxic effects of cocaine in mice | relatively narrow therapeutic window, which can result in deaths in mice at supratherapeutic doses
